Test results from ChEMBL document CHEMBL1126559, “Further studies of the structure-activity relationships of 1-[1-(2-benzo[b]thienyl)cyclohexyl]piperidine. Synthesis and evaluation of 1-(2-benzo[b]thienyl)-N,N-dialkylcyclohexylamines at dopamine uptake and phencyclidine binding sites” (J Med Chem, 1993).

How the values were obtained:
[1] = biological target: T1, Sodium-dependent dopamine transporter (Rattus norvegicus, UniProt P23977); test: Tested for radioligand [3H]cocaine displacement from dopamine transporter in rat forebrain
[2] = biological target: T1, Sodium-dependent dopamine transporter; test: Tested for inhibition of radioligand [3H]dopamine (DA) uptake in rat synaptosomes; format: subcellular, Brain
[3] = biological target: T1, Sodium-dependent dopamine transporter; test: Tested for radioligand [3H]BTCP displacement from dopamine transporter in rat forebrain
[4] = biological target: Glutamate NMDA receptor; test: Tested for affinity by radioligand [3H]-TCP displacement from phencyclidine binding site (PCP) in rat homogenates

T1 sequence (P23977 whole entry): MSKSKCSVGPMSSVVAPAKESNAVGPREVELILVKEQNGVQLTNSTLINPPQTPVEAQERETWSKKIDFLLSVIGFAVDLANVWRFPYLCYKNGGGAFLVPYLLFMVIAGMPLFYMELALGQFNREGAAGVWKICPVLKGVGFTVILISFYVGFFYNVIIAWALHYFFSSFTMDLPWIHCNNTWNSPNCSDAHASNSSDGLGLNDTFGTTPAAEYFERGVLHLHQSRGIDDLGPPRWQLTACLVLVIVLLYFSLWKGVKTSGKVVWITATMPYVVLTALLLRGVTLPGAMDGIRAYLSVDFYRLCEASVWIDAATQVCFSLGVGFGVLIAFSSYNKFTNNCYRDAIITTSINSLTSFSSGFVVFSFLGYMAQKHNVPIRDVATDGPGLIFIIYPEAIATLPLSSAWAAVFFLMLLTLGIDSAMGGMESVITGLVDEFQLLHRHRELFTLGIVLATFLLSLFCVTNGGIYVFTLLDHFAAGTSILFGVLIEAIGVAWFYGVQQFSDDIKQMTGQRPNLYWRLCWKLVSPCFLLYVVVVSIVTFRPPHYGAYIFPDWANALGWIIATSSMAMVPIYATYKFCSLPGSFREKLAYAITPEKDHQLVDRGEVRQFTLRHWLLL

Row | Structure (SMILES) | IC50 [1] [nM] | IC50 [2] [nM] | IC50 [3] [nM] | Ki [4] [nM]
1 | CCCNC1(c2cc3ccccc3s2)CCCCC1 | 57 | 5 | 4 | > 10000
2 | COC(=O)[C@H]1[C@@H](OC(=O)c2ccccc2)C[C@@H]2CC[C@H]1N2C [COCAINE] | – | – | – | > 10000
3 | CC(C)=CCNC1(c2cc3ccccc3s2)CCCCC1 | 50 | 14 | 8 | > 10000
4 | CCCN(CC)C1(c2cc3ccccc3s2)CCCCC1 | 207 | 17 | 20 | > 10000
5 | CCNC1(c2cc3ccccc3s2)CCCCC1 | 165 | 22 | 22 | > 10000
6 | CCCCN(C)C1(c2cc3ccccc3s2)CCCCC1 | 161 | 33 | 21 | > 10000
7 | CCCCNC1(c2cc3ccccc3s2)CCCCC1 | 60 | 7 | 0.3 | > 10000
8 | CCCCCNC1(c2cc3ccccc3s2)CCCCC1 | 337 | 34 | 24 | > 10000
9 | NCCNC1(c2cc3ccccc3s2)CCCCC1 | 170 | 88 | 30 | > 10000
10 | Clc1ccc(CCNCCNC2(c3cc4ccccc4s3)CCCCC2)cc1Cl | 713 | 174 | 211 | > 10000
11 | c1ccc2sc(C3(N4CCCCC4)CCCCC3)cc2c1 | 39 | 11 | – | > 10000
12 | c1ccc2sc(C3(NCC4CCC4)CCCCC3)cc2c1 | 37 | 7 | 4 | > 10000
13 | CN(C)C1(c2cc3ccccc3s2)CCCCC1 | 84 | 51 | 27 | > 10000
14 | O=C1NCCN1C1(c2cc3ccccc3s2)CCCCC1 | > 5000 | 2120 | 1740 | > 10000
15 | CNCCCCNC1(c2cc3ccccc3s2)CCCCC1 | 328 | 33 | 50 | > 10000
16 | CNC1(c2cc3ccccc3s2)CCCCC1 | 270 | 57 | 101 | > 10000
17 | NCCCNC1(c2cc3ccccc3s2)CCCCC1 | – | – | – | > 10000
18 | c1ccc2sc(C3(NCC4CC4)CCCCC3)cc2c1 | 23 | 4 | 1 | > 10000
19 | CNCCCNC1(c2cc3ccccc3s2)CCCCC1 | 746 | 89 | 8 | > 10000
20 | Clc1ccc(CCNC2(c3cc4ccccc4s3)CCCCC2)cc1Cl | > 5000 | > 5000 | 1000 | > 10000
21 | CNCCNC1(c2cc3ccccc3s2)CCCCC1 | 63 | 29 | 17 | > 10000
22 | NCC(=O)NC1(c2cc3ccccc3s2)CCCCC1 | 841 | 138 | 114 | > 10000
23 | C=CCNC1(c2cc3ccccc3s2)CCCCC1 | 57 | 11 | 7 | > 10000
24 | CCCN(CCC)C1(c2cc3ccccc3s2)CCCCC1 | 220 | 81 | 37 | > 10000
25 | c1ccc(CNC2(c3cc4ccccc4s3)CCCCC2)cc1 | – | 196 | 143 | > 10000
26 | CCCCN(CCCC)C1(c2cc3ccccc3s2)CCCCC1 | 386 | 1360 | 124 | > 10000
27 | CCN(CC)C1(c2cc3ccccc3s2)CCCCC1 | 42 | 12 | 12 | > 10000
28 | O=C(Cc1ccc(Cl)c(Cl)c1)NCCNC1(c2cc3ccccc3s2)CCCCC1 | 1480 | 947 | 579 | > 10000
